From US9127024B2 (Intrexon Corporation, priority 2013, dated 2015) come the findings set out here.

In general, AUC(0-t) refers to the area under the concentration-time curve up to a stated or last time point. Low values mean low exposure, high ones high exposure. The Cmax is the maximum level reached in the sampled fluid or tissue. For orientation: Tmax means the time at which the peak concentration occurs. The half-life is the time needed for the level to fall by half in the phase considered. For orientation: EC50 means the concentration that produces a half-maximal response.

A short description of series [1]: Pharmacokinetic (PK) study, oral gavage, plasma LC-MS/MS. The following applies: female Sprague Dawley rats, oral gavage 10 mg/kg, Capryol 90/Triacetin (1:1, v/v); for AUC(0-t) / Cmax / Tmax / half-life: female, Sprague Dawley, rat, po, 10 mg/kg; for AUC(0-t): AUC0−t; for Clearance: oral clearance.
Protocol: Female Sprague Dawley rats were fasted for at least 8 hours (overnight) prior to oral dosing of the compound via gavage (10 mg/kg; vehicle=2 mg/mL of Capryol 90/Triacetin (1:1, v/v); 3 animals/compound) and weighed prior to dosing. The correct volume of the appropriate formulation was administered based on that day's (animal) body weight. Body weight, dose volume, and dosing time was recorded for each animal. Animals were not fed for at least 4 hours following activator ligand administration.
Approximately 200 μL/blood sample was collected from the catheter sample points in EDTA tubes at each time point from each animal. The exact time of blood collection was recorded for each animal Blood samples were held at 4° C. (wet ice) starting immediately after collection and were centrifuged within 15 minutes from the collection for 12 minutes at 2500 rpm. After centrifugation, plasma samples were stored at ^−80° C. until assay. Sample times were as follows: Day 0: 0, 0.5, 1, 2, 3, 4, 6 and 8 hours; Day 1: 24 hours.
LC-MS/MS Method: Liquid chromatography tandem mass spectrometry with protein precipitation method was used to quantify the compound in rat plasma samples collected from all animals dosed with the ligand. Linearity range was from 1 ng/mL to 1000 ng/mL, with correlation coefficient for calibration curves above 0.99 and analyte quantified within ±15% of target at all calibrator concentrations.
The plasma ligand concentration was calculated by extrapolating the area under the curve values for the samples from the standard curve generated by the Analyst® software program. The ng/mL values for the plasma samples representing all the animals were used to generate the pharmacokinetic (PK) parameters.
The target of series [2] is RheoSwitch® (CHO-K1_RS-1 cells, firefly Luciferase reporter) (Choristoneura fumiferana, UniProt O77240). Briefly: in vitro gene switch assay (fLUC Luciferase expression, potency screen). The class given is cell-based. The source says: Gene switch assays are disclosed, e.g., in U.S. Pat. Nos. 8,076,517; 7,456,315; 7,304,161; and 6,258,603.
CHO-K1 cells were stably transfected with a plasmid (RS-1, FIG. 1) coding for firefly Luciferase (fLUC) under the control of the RheoSwitch® resulting in the stable cell line CHO-K1_RS-1. A master cell bank was created containing approximately 100 vials at 5×10^6 cells per vial. One vial of CHO-K1_RS-1 was thawed and cultured for two weeks prior to each in vitro potency screening.
Twenty-four (24) hours prior to treatment with the control and test compounds the CHO-K1_RS-1 cells were seeded into white-opaque 384-well cell culture plates at 3,600 cells per well in 30 μl of culture medium. The cells were incubated in a humidified CO2 incubator at 37° C. until compound treatment.
Compounds were prepared at 25 mM in 100% dry DMSO and stored at room temperature in sealed 1 ml tubes prior to subsequent dilution and assay. On the day of cell treatment the tubes containing the control and test compounds were sorted and the ligands transferred to a 96-well polypropylene plate for subsequent dilution. The compounds were diluted in 100% dry DMSO in an 8-point, 10-fold dilution series ranging from 25 mM to 2.5 nM using the Biomek FX automated liquid handler.
The diluted compounds were then transferred to each well of 384-well polypropylene plate in quadruplicate resulting in a single 384-well plate with four replicates of each compound dilution in a different quadrant of the plate. Each well on the 384-well plate received 20 μl of diluted compound. The 384-well plates containing diluted compound and the plates containing cells in culture were loaded onto the Biomek FX and 30 nl of compound was delivered to each well containing cells using a 384-pin V&P Scientific Pin Tool. The resulting 1000-fold dilution (30 nl to 30 μl) generated a final dosing range of 25 μM to 2.5 pM in 0.1% DMSO. Two replicate plates were produced to supply a dedicated plate for the Luciferase expression assay and the APH cell viability assay.
The cells were incubated with the compound for 24 hours in a humidified CO2 incubator at 37° C. Following incubation, the cells were assayed for Luciferase expression (fLUC assay) using the Steady Glo assay from Promega. Cells were equilibrated to room temperature for 15 minutes prior to reagent addition. Thirty micro liters (30 μl) of assay reagent was added to each well of the 384-well plate using the Biomek FX. The reagent was incubated with the cells for 10-120 minutes prior to reading on a Molecular Devices Spectramax L luminometer. The assay reagents were prepared as per the manufacturer's instructions.
The Luciferase expression data was normalized to the baseline signal from cells treated with DMSO alone. The ratio of signal from treated cells to vehicle-treated cells was plotted and non-linear regress was performed using Graph Pad Prism software. EC50, (log)EC50 and Hill slope data was generated. Reporter gene expression, e.g., luciferase expression, serves as a proxy for the expression of a gene of interest. See, e.g., US 2009/0123441 and WO 2011/119773.

[3] abbreviates: read-out: fLUC assay EC50, 24 hours with compound, 25 μM to 2.5 pM, figure in parentheses after a value not defined.
Where [4] appears, read: read-out: fLUC assay EC50 Run 1, 24 hours with compound, Run 1.
The mark [5] stands for this setting: read-out: fLUC assay EC50 Run 2, 24 hours with compound, Run 2.

Like-named read-outs stand apart in the source and are kept apart here.

Sequence of RheoSwitch® (CHO-K1_RS-1 cells, firefly Luciferase reporter) (O77240 1-513): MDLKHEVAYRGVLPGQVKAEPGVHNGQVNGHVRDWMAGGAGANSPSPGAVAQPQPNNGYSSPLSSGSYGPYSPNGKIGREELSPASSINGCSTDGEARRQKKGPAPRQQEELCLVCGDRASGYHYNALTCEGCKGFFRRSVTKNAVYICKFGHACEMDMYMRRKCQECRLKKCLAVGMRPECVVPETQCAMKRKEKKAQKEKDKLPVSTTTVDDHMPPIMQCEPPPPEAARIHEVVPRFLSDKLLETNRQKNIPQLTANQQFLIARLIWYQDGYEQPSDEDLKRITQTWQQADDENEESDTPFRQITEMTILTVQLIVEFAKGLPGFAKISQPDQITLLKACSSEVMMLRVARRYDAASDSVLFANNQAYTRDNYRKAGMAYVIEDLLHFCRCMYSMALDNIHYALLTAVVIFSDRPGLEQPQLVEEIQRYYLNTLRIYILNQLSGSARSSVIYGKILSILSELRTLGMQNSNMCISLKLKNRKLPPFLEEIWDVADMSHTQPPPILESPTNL

Consider `CCC[C@@H](N(NC(=O)c1ccc(B(O)O)c(F)c1)C(=O)c1cc(C)cc(C)c1)C(C)(C)C` [Cpd. No. 22, (R)-(4-(2-(3,5-dimethylbenzoyl)-2-(2,2-dimethylhexan-3-yl)hydrazinecarbonyl)-2-fluorophenyl)boronic acid], for which, in series [1], the area under the curve AUC(0-t) is 25 µg·h/mL, the maximum concentration (Cmax) was 2.73 µg/mL, the Tmax amounted to 3 h and the half-life is 5.6 h. In series [1], the Clearance turned out to be 0.407 L/h/kg. Further, the EC50 in series [2] (setting [3]) is 0.105 µM.
Turning to `CCC[C@@H](N(NC(=O)c1cccc(OC)c1CC)C(=O)c1cc(C)cc(C)c1)C(C)(C)C` [Cpd. B, reference compound], in series [1], the AUC(0-t) came out at 0.888 µg·h/mL, the peak concentration (Cmax) was found to be 0.116 µg/mL, the Tmax amounted to 3.7 h and the half-life is 5.4 h. The Clearance in series [1] worked out at 11.03 L/h/kg.
For `CCC[C@@H](N(NC(=O)c1cccc(OC)c1C)C(=O)c1cc(C)cc(C)c1)C(C)(C)C` [Cpd. A, reference compound], in that order: 0.773 µg·h/mL, 0.255 µg/mL, 4 h, 2.1 h and 12.786 L/h/kg.
As for `CCC(N(NC(=O)c1cccc(OC)c1C)C(=O)c1cc(F)cc(B(O)O)c1)C(C)(C)C` (racemic) [compound 35], the EC50 in series [2] (setting [3]) came to 2.6 µM.
Consider `CCC(C)(C)N(NC(=O)c1ccc2c(c1C)OCCOB2O)C(=O)c1cc(C)cc(C)c1` [compound 76], for which the EC50 in series [2] (setting [3]) was 0.358 µM.
Consider `[2H]C([2H])([2H])c1cc(C(=O)N(NC(=O)c2ccc3c(c2F)COB3O)C(C)(C)C)cc(C([2H])([2H])[2H])c1` [Cpd. No. 66, N′-(3,5-bis(methyl-d3)benzoyl)-N′-(tert-butyl)-4-fluoro-1-hydroxy-1,3-dihydrobenzo[c][1,2]oxaborole-5-carbohydrazide], for which the half-maximal effective concentration (EC50) in series [2] (setting [3]) was found to be 3.27 µM.
On the same count and under the same terms, the result for `Cc1cc(C)cc(C(=O)N(NC(=O)c2cccc(B(O)O)c2Cl)C(C)(C)C)c1` [Cpd. No. 3] reads 1.66 µM.
The same measure, in the same setting: the result for `Cc1cc(C)cc(C(=O)N(NC(=O)c2ccc3c(c2F)COB3O)C(C)(C)C)c1` [Cpd. No. 65, N′-(tert-butyl)-N′-(3,5-dimethylbenzoyl)-4-fluoro-1-hydroxy-1,3-dihydrobenzo[c][1,2]oxaborole-5-carbohydrazide] reads 3.18 µM; that for `CCC[C@@H](N(NC(=O)c1ccc(B(O)O)cc1)C(=O)c1cc(C)cc(C)c1)C(C)(C)C` [Cpd. No. 8], 0.103 µM; that for `CCCC(N(NC(=O)c1cccc(B2OC(C)(C)C(C)(C)O2)c1C)C(=O)c1cc(C)cc(C)c1)C(C)(C)C` (racemic) [compound 44], 0.25 µM.
Still for that read-out and setting: under `CCCC(N(NC(=O)c1cccc(B2OC(C)(C)C(C)(C)O2)c1C)C(=O)c1cccc(B2OC(C)(C)C(C)(C)O2)c1C)C(C)(C)C` (racemic) [compound 41] stands about 14 µM; under `CCC[C@@H](N(NC(=O)c1cccc(B(O)O)c1F)C(=O)c1cc(C)cc(C)c1)C(C)(C)C` [Cpd. No. 6], 0.0927 µM; under `Cc1cc(C)cc(C(=O)N(NC(=O)c2ccc(B(O)O)c(F)c2)C(C)(C)C)c1` [Cpd. No. 23, (4-(2-(tert-butyl)-2-(3,5-dimethylbenzoyl) hydrazinecarbonyl)-2-fluorophenyl)boronic acid], 1.8 µM.
Turning to `CCOCc1ccc(C(=O)NN(C(=O)c2cc(C)cc(C)c2)[C@H](CC)C(C)(C)C)c(F)c1B(O)O` [compound 90, (R)-(3-(2-(3,5-dimethylbenzoyl)-2-(2,2-dimethylpentan-3-yl)hydrazine-1-carbonyl)-6-(ethoxymethyl)-2-fluorophenyl)boronic acid], the EC50 in series [2] (setting [4]) is 0.389 µM; in series [2] (setting [5]) it was about 0.266 µM.
Take `CC[C@@H](N(NC(=O)c1ccc(B(O)O)c(OCCOC)c1C)C(=O)c1cc(C)cc(C)c1)C(C)(C)C` [Cpd. No. 26, (R)-(4-(2-(3,5-dimethylbenzoyl)-2-(2,2-dimethylpentan-3-yl)hydrazinecarbonyl)-2-(2-methoxyethoxy)-3-methylphenyl)boronic acid]: the concentration for a half-maximal effect (EC50) in series [2] (setting [3]) worked out at 1.67 µM.
Still for that read-out and setting: under `Cc1cc(C)cc(C(=O)N(NC(=O)c2cccc(B3OC(C)(C)C(C)(C)O3)c2C)C(C)(C)C)c1` [compound 43] stands 1.42 µM; under `Cc1cc(C)cc(C(=O)N(NC(=O)c2ccc(B(O)O)cc2C(C)C)C(C)(C)C)c1` [compound 11], 14.1 µM.
For `Cc1cc(C)cc(C(=O)N(NC(=O)c2c(F)cc(B(O)O)cc2F)C(C)(C)C)c1` [Cpd. No. 25, (4-(2-(tert-butyl)-2-(3,5-dimethylbenzoyl) hydrazinecarbonyl)-3,5-difluorophenyl)boronic acid], in series [2] (setting [3]), the EC50 came out at 0.796 µM.
On to `CC[C@@H](N(NC(=O)c1cccc(OC)c1C)C(=O)c1cc(C)cc(B2OC(C)(C)C(C)(C)O2)c1)C(C)(C)C` [compound 39], for which the EC50 in series [2] (setting [3]) was determined as 0.168 µM.
Take `CCC(N(NC(=O)c1cccc(OC)c1C)C(=O)c1cc(OC)cc(B(O)O)c1)C(C)(C)C` (racemic) [compound 37]: the EC50 in series [2] (setting [3]) is 2.11 µM.
Same read-out and setting: under `CCC[C@@H](N(NC(=O)c1ccc2c(c1C)OB(O)CCC2)C(=O)c1cc(C)cc(C)c1)C(C)(C)C` [Cpd. No. 70, (R)—N′-(3,5-dimethylbenzoyl)-N′-(2,2-dimethylhexan-3-yl)-2-hydroxy-9-methyl-2,3,4,5-tetrahydrobenzo[f][1,2]oxaborepine-8-carbohydrazide] stands 0.0406 µM.
Turning to `CC[C@@H](N(NC(=O)c1ccc(COC)c(B(O)O)c1F)C(=O)c1cc(C)cc(C)c1)C(C)(C)C` [Cpd. No. 86, (R)-(3-(2-(3,5-dimethylbenzoyl)-2-(2,2-dimethylpentan-3-yl)hydrazine-1-carbonyl)-2-fluoro-6-(methoxymethyl)phenyl)boronic acid], the half-maximal effective concentration (EC50) in series [2] (setting [4]) is 0.0488 µM; in series [2] (setting [5]), 0.0745 µM.
Consider `Cc1cc(C)cc(C(=O)N(NC(=O)c2ccc3c(c2C)OCCOB3O)C(c2ccccc2)C(C)(C)C)c1` (racemic) [Cpd. No. 83, N′-(2,2-dimethyl-1-phenylpropyl)-N′-(3,5-dimethylbenzoyl)-1-hydroxy-6-methyl-3,4-dihydro-1H-benzo[c][1,5,2]dioxaborepine-7-carbohydrazide], for which the half-maximal effective concentration (EC50) in series [2] (setting [3]) was determined as 0.0659 µM.
The same measure, in the same setting: under `Cc1cc(C)cc(C(=O)N(NC(=O)c2ccc(B(O)O)cc2F)C(C)(C)C)c1` [compound 12] stands 0.271 µM; under `CCC(N(NC(=O)c1cccc(B2OC(C)(C)C(C)(C)O2)c1C)C(=O)c1cc(OC)c(C)c(OC)c1)C(C)(C)C` (racemic) [compound 47], 1.64 µM.
Turning to `Cc1cc(C)cc(C(=O)N(NC(=O)c2ccc3c(c2C)OCCNB3O)C(C)(C)C)c1` [Cpd. No. 91, N′-(tert-butyl)-N′-(3,5-dimethylbenzoyl)-1-hydroxy-6-methyl-1,2,3,4-tetrahydrobenzo[f][1,4,5]oxazaborepine-7-carbohydrazide], the EC50 in series [2] (setting [4]) came to 0.132 µM; in series [2] (setting [5]), 0.0869 µM.
